Test results: ChEMBL document CHEMBL5465560, “Selectivity Literature for EUbOPEN Chemogenomic Library” (2024)
Values belong to the compound of their own block, whether it stands above or below them.

Legend:
[1] = target: T1, Serine/threonine-protein kinase Nek10 (Homo sapiens) (UniProt Q6ZWH5); assay: Selectivity interaction (Ambit KINOMEscan and KiNATiv profiling in Jurkat cells) EUB0000090b NEK10; assay type: cell-based; settings: at 1 µM
T1 sequence (whole entry): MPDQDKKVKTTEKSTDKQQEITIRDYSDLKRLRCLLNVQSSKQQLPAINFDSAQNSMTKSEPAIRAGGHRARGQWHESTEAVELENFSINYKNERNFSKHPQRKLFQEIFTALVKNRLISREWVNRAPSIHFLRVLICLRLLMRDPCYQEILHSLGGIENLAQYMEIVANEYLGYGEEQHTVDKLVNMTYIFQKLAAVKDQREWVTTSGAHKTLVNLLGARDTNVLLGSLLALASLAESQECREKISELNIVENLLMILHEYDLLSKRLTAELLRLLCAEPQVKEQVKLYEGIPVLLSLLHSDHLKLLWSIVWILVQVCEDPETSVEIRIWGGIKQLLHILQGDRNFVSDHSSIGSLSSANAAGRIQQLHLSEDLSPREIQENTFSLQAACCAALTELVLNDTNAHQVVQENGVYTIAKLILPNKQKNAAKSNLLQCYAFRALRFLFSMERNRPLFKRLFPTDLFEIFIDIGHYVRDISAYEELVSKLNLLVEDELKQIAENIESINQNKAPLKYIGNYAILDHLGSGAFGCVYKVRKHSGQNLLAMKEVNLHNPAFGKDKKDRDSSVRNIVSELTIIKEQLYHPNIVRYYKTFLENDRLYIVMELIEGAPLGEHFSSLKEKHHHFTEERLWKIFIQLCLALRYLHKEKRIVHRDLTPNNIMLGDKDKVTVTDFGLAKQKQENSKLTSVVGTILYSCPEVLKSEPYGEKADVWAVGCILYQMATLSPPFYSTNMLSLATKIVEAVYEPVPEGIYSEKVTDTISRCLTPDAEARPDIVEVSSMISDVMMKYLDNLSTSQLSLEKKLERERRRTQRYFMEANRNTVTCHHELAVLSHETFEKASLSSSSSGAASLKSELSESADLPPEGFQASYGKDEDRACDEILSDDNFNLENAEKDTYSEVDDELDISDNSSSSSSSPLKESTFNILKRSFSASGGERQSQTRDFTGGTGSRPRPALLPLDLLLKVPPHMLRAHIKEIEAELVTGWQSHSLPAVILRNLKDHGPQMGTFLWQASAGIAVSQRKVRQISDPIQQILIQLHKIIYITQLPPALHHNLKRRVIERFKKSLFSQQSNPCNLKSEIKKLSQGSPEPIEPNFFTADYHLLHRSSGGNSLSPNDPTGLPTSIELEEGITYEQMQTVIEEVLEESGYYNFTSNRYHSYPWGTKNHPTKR

[2] = target: T2, Muscarinic acetylcholine receptor M1 (Homo sapiens) (UniProt P11229); assay: Selectivity interaction (GPCR panel (PDSP screen)) EUB0001079a CHRM1; settings: at 10 µM
T2 sequence (whole entry): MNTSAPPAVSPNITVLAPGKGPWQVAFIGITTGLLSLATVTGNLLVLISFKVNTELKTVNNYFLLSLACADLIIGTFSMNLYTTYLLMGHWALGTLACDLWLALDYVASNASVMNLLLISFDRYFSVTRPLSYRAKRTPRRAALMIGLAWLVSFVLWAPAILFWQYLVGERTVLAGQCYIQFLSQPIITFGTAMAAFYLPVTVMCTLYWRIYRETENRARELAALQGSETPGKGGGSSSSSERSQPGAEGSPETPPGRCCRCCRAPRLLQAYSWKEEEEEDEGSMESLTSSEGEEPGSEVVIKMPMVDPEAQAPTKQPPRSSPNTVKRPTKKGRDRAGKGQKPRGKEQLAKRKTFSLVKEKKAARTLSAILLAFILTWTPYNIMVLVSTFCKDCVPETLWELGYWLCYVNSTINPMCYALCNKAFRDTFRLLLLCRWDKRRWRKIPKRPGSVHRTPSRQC

[3] = target: T3, Myosin light chain kinase family member 4 (Homo sapiens) (UniProt Q86YV6); assay: Selectivity interaction (KinomeScan (DiscoverX)) EUB0000618a MYLK4; settings: at 10 µM
T3 sequence (whole entry): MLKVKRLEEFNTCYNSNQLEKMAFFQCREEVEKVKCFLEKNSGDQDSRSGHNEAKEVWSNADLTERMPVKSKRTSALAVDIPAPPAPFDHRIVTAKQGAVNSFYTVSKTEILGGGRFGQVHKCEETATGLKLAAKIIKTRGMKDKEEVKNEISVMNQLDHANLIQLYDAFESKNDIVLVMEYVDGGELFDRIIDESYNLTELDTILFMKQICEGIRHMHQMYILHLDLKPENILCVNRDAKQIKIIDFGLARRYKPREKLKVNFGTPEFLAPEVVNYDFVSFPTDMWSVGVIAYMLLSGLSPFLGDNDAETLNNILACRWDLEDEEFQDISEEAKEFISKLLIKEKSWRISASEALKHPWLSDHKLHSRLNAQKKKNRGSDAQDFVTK

[4] = target: T4, Serine/threonine-protein kinase Sgk3 (Homo sapiens) (UniProt Q96BR1); assay: Selectivity interaction (Upstate Kinase Profiler service (Millipore)) EUB0000056c SGK3; settings: at 1 µM
T4 sequence (whole entry): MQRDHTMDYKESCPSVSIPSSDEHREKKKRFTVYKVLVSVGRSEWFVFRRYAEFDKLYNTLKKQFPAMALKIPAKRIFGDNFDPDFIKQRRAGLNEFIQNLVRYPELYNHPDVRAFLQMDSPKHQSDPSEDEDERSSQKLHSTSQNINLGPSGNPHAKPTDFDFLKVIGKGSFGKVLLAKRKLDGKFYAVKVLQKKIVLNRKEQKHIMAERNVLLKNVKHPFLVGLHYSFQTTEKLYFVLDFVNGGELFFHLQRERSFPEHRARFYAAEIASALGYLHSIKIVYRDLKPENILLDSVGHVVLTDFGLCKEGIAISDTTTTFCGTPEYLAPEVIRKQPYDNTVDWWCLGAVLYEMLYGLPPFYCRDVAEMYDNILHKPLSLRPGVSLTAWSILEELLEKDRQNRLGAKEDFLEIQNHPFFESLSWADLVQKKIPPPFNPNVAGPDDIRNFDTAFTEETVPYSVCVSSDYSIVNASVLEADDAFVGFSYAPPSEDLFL

[5] = target: Activated CDC42 kinase 1 (Homo sapiens, UniProt Q07912); assay: Selectivity interaction (KinomeScan (DiscoverX)) EUB0000666a TNK2; settings: at 10 µM
Sequence of Activated CDC42 kinase 1 (Q07912 whole entry, looked up): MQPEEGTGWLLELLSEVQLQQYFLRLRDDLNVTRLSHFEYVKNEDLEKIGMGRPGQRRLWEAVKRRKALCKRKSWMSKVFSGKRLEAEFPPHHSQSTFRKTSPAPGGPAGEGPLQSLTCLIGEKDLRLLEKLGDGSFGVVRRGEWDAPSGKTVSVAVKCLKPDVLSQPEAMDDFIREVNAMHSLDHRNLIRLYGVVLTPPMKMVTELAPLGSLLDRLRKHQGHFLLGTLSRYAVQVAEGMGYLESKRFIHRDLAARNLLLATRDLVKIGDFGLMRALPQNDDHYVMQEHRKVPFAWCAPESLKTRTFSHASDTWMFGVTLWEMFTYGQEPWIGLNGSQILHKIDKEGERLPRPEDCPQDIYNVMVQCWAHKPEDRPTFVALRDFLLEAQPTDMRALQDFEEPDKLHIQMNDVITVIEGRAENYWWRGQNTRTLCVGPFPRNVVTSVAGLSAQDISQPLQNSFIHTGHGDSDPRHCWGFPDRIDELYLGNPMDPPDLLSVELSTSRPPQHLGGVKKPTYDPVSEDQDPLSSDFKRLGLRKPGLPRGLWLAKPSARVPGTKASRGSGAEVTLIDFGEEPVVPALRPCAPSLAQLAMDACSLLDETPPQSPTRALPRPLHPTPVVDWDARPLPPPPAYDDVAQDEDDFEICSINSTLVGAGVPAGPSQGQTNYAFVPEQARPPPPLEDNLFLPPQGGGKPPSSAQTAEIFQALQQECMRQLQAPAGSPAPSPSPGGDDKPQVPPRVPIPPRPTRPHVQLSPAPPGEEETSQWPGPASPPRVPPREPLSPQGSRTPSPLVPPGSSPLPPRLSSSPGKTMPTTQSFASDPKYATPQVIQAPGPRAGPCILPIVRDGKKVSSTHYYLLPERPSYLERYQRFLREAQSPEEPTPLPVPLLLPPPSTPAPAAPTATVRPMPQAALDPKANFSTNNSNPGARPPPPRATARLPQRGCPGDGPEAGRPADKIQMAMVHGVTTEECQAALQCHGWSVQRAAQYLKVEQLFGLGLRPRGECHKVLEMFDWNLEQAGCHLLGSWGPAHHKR

SMILES: CN(C)C/C=C/C(=O)Nc1ccc(C(=O)N2CCCC(Nc3ncc(Cl)c(-c4c[nH]c5ccccc45)n3)C2)cc1 (stereo not given)
% of control [1]: 100%

SMILES: Nc1cnc(N2CCc3cc(S(=O)(=O)Nc4c(F)cc(Cl)cc4F)cc(N4CCCC4=O)c32)nc1 [TP-020n]
% of inhibition [2]: -9.48%

SMILES: O[C@H]1CC[C@H](Nc2ncc3nc(Nc4c(F)cc(F)cc4F)n([C@H]4CCOC4)c3n2)CC1
% of control [3]: 100%

% of inhibition [4]: -1%
SMILES: Cc1ccc(-c2ccc3c(ccc4sc5c(c43)NC[C@@H](C)NC5=O)n2)cn1

SMILES: O=C(NOC[C@H](O)CO)c1ccc(F)c(F)c1Nc1ccc(I)cc1F
% of control [5]: 72%
